The nature of series [1]: biological activity (biological properties of TXA2) in a variety of assays. Here is the method: (§1) TXA2 S was also prepared by saponifiction of H2 (X=H) with Me3 SiOK (10) in tetrahydrofuran and isolated as an amorphous solid by solvent evaporation.
Series [2] is described as follows: chemical stability and storage stability. Type of series: physicochemical. The procedure: The salts of TXA2 were stable for more than one week when stored at -20 C. either as isolated solids or in basic methanol or tetrahydrofuran solution.
To a vile containing 1 mg (0.003 mmol) H1 in 0.050 ml (d4 -)methanol was immediately added 0.0025 ml of a 0.12M solution of NaOH(D) in (D)H2 O under nitrogen. […] Such solutions were diluted and used for biological testing and could be stored for at least a week at -20° C. without significant loss in biological activity.
as §1

Series [3] deals with rabbit mesenteric arteries. The conditions noted are these: ref (19); cited from earlier work.
The subject of series [4] is rabbit celiac arteries. Conditions: ref (19); cited from earlier work.
In the next series the test system is platelets. The series can be described thus: inhibition of TXA2 S induced platelet aggregation. In kind it is cell-based, human.
For series [5], the system named is vascular tissue (rabbit aorta, pulmonary, mesenteric, celiac arteries and bovine coronary arteries). Description: contraction of Krebs superfused vascular tissue. Type of series: cell-based. The conditions noted are these: for constriction of vascular tissue versus natural TXA2 / contraction of vascular tissue: rabbit aorta, pulmonary; for constriction of vascular tissue versus natural TXA2: mesenteric and celiac arteries; for contraction of vascular tissue: mesenteric, celiac arteries and bovine coronary arteries. Here is the method: (§2) On most tissues 2-3 ng of TXA2 S was the threshold dose for contraction, generating more than 2 g of tension with rabbit aorta and 4 g of tension with bovine coronary arteries.

Series [6] relates to thromboxane synthetase or cyclooxygenase.
The nature of series [7]: half-life in Krebs solution at 37° C. (bioassay on vascular tissue). Type of series: physicochemical. Conditions: leading to TXB2. Here is the method:
Radioimmunoassay determinations of hydrolyzed TXA2 yielded values of 84±21, 60±16, 39±11, and 25±8 picograms TXB2 (mean±S.D at 95% confidence, n=3) which correspond with predicted values of 125, 62, 31, and 15 picograms, respectively. The half-life of TXA2 S at 37° C. in Krebs solution measured by bioassay on vascular tissue was 30 seconds which compares very closely with previously reported half-lives for biologically generated material. (1, 12)

Series [8] deals with human platelet rich plasma (PRP). Description: aggregation of human platelet rich plasma (PRP). In kind it is cell-based. The text has this: (§3) TXA2 S at concentrations of 16-100 nanograms/ml caused a concentration-dependent aggregation of human platelet rich plasma (PRP). Irreversible aggregation occurred with 50-100 nanograms TXA2 S/ml for all cases examined. […] These comparative potencies concur with published data. […] The aggregatory effects of TXA2 S were confined to platelets.

The next series relates to human neutrophils. The series can be described thus: aggregation of human neutrophils. In kind it is cell-based.
For series [9] the following is noted: 37° C., pH 7.4; refs (1,3); cited from earlier work.
The subject of series [10] is rabbit celiac arteries. Description: response of rabbit celiac arteries. In kind it is cell-based. The procedure:
as §2

The subject of series [11] is vascular tissue (rabbit aorta, pulmonary, mesenteric, celiac arteries and bovine coronary arteries). Conditions: generated by platelets or a partially purified platelet enzyme; cited from earlier work.
The subject of series [12] is rabbit mesenteric arteries. The series can be described thus: response of rabbit mesenteric arteries. Type of series: cell-based. Here is the method:
as §2

The conditions of series [13]: indirect methods; refs (14), (15); listed as biologically generated material; cited from earlier work.
The next series concerns bovine coronary arteries. Description: contraction of Krebs superfused bovine coronary arteries. In kind it is cell-based. The conditions noted are these: threshold dose 2-3 ng. Here is the method:
as §2

A further series can be described thus: in vitro. Type of series: in vitro ADME. The conditions noted are these: human, plasma.
Description: as §3

For another series, the system named is leukotriene B4. Description: stimulation of leukotriene B4 formation. In kind it is cell-based, human. The conditions noted are these: 2 ug/ml.
For a further series, the system named is rabbit aorta. The series can be described thus: contraction of Krebs superfused rabbit aorta. Type of series: cell-based. Conditions: threshold dose 2-3 ng. The procedure: as §2

Values joined by “and” are separate entries in the source; they are usually repeats but may differ in a detail not shown here. Equal values may be shown once. “Also recorded” adds a separate entry of the source. Where a name gives a salt, the structure may show the parent alone.

On to `CCCCC[C@H](O)/C=C/[C@H]1O[C@H]2C[C@H](O2)[C@@H]1C/C=C\CCCC(=O)O` [A, Thromboxane A2], for which the “biological assays versus platelet-derived TXA2” value in series [1] is on record as “indistinguishable from platelet-derived TXA2”.
On to `CCCCCC(O)C=CC1OC2CC(O2)C1CC=CCCCC(=O)O` (stereo not drawn) [free acid], for which, in series [2] (deuterochloroform, elimination to the enol ether), the “stability of free acid in aprotic solvents” value is “underwent elimination to the corresponding enol ether over the course of several hours”.
Turning to `CCCCC[C@H](O)/C=C/[C@@H]1[C@@H](C/C=C\CCCC(=O)O)[C@@H]2C[C@H]1OO2` [PGH2], the “response of rabbit mesenteric arteries to PGH2” value in [3] is “small, short-lived contraction, followed by larger, longer lasting relaxation”. In the series on rabbit celiac arteries [4], the “response of rabbit celiac arteries to PGH2” value is on record as “small, short-lived contraction, followed by larger, longer lasting relaxation”.
Regarding `CCCCCCC=CC1C2CC(N=N2)C1CC=CCCCC(=O)O` (stereo not drawn) [Compound U-51605, 9,11-diazo-prosta-5,13-dienoic acid], the TXA2-induced aggregation result in the series with platelets (inhibitor at 1-3 ug/ml) is “inhibited TXA2 -induced aggregation in a concentration-dependent manner”.
Regarding `CCCCCC1C=CC2OC3CC(O3)C2CC=CCCCC(=O)O1` (stereo not drawn) [Compound H2, 1,15-Anhydro Thromboxane A2], the biological activity entry in series [1] is “did not show the biological properties of TXA2; also recorded: biologically inactive”.
In the case of `CCCCCCC=CC1C2CC(NO2)C1CC=CCCCC(=O)O` (stereo not drawn) [Compound U-54701, 9,11-iminoepoxy-prosta-5,13-dienoic acid], in the series with platelets (inhibitor at 5-15 ug/ml), the “platelet aggregation induced by TXA2 S” value is “no effect”.
In the case of `CCCCCC(O)C=CC1OC2CC(O2)C1CC=CCCCC(=O)O` (stereo not drawn) [sodium salt of A, Thromboxane A2 Sodium], the “constriction of vascular tissue versus natural TXA2” value in [5] was “indistinguishable from natural TXA2”. The “resistance to inhibition by selective thromboxane synthetase or cyclooxygenase inhibitors versus natural TXA2” value in series [6] is “indistinguishable from natural TXA2”. Also, the “half-life in Krebs medium/solution” value in series [7] turned out to be 30 s. Besides, in [1], the biological activity entry is listed as “marked activity”. Moreover, the “comparative potency in aggregating human platelets versus natural TXA2” value in series [8] is recorded as “indistinguishable from natural TXA2”. In addition, the “storage without significant loss in biological activity” value in [2] (-20° C., methanol/water saponification solution) is reported as “at least a week”. For the same molecule, the aggregation of neutrophils entry in the series on human neutrophils is given as “not neutrophils”.
For the molecule `CCCCCC(O)C=CC1OC2CC(O2)C1CC=CCCCC(=O)O` (stereo not drawn) [potassium salt of A, Thromboxane A2 Potassium], in series [5], the “constriction of vascular tissue versus natural TXA2” value is “indistinguishable from natural TXA2”. In addition, the “resistance to inhibition by selective thromboxane synthetase or cyclooxygenase inhibitors versus natural TXA2” value in series [6] was “indistinguishable from natural TXA2”. Besides, the “half-life in Krebs medium/solution” value in series [7] worked out at 30 s. The “comparative potency in aggregating human platelets versus natural TXA2” value in [8] is given as “indistinguishable from natural TXA2”. For the same molecule, the aggregation of neutrophils entry in the series on human neutrophils is given as “not neutrophils”.
On to `CCCCC[C@H](O)/C=C/[C@H]1O[C@H]2C[C@H](O2)[C@@H]1C/C=C\CCCC(=O)O` [TXA2, thromboxane A2], for which the “contraction of vascular tissue” value in [5] is listed as “contracted all vascular tissue tested”. Besides, the “T1/2 in aqueous Krebs medium” value in series [9] is 32 s. Further, the “response of rabbit celiac arteries” value with rabbit celiac arteries [10] is “only constriction”. Moreover, the vascular contracting activity result in series [11] is “potent vaxcular contracting activity”. In [12], the “response of rabbit mesenteric arteries” value is “only constriction”. For the same molecule, the “hydrolysis to TXB2” value in [2] (aqueous high salt, neutral pH buffers) is “rapidly hydrolyzed to TXB2”. In addition, in [2] (high pH), the “stability at high pH” value is on record as “appreciably enhanced at high pH”. In series [13], the “half-life in plasma, biologically generated material” value was 3 minutes and 5-6 minutes.
Consider `CCCCC[C@H](O)/C=C/[C@H]1O[C@H]2C[C@H](O2)[C@@H]1C/C=C\CCCC(=O)O` [TXA2 S, Thromboxane A2], for which the “potency versus biologically produced TXA2” value in [5] (TXA2 calculated from PGH2 originally in the incubation, assuming 100% conversion) is reported as “compared well with the activity of biologically produced TXA2”. Further, in [5], the “contraction of vascular tissue” value is “contracted all vascular tissue tested”. Moreover, the “tension generated, bovine coronary arteries” value with bovine coronary arteries is listed as greater than 4 g. Besides, in the series on rabbit celiac arteries [10], the “response of rabbit celiac arteries” value is given as “only constriction”. In addition, the results for the half-life (in “in vitro”; in series [7] (krebs medium)) were 234 s and 30 s, respectively. The “stimulation of formation of leukotriene B4” value in the series with leukotriene B4 is on record as “nor did it stimulate formation of leukotriene B4”. Besides, the “response of rabbit mesenteric arteries” value in series [12] is “only constriction”. The “tension generated, rabbit aorta” value in the series on rabbit aorta is recorded as “more than 2 g”. For the same molecule, the biological activity entry in [1] is “did exhibit biological properties”. In addition, the “biological activity after hydrolysis” value in series [1] (0.1M phosphate buffer, pH 7.4) is reported as “eliminated its biological activity”. Moreover, in series [8], the “concentration causing concentration-dependent aggregation of human PRP” value is recorded as 16-100 nanograms/ml. The “potency relative to PGH2 at inducing aggregation of human PRP” value in [8] is “approximately 10 times”. For the same molecule, the “concentration causing irreversible aggregation” value in [8] (all cases examined) is 50-100 nanograms/ml. Besides, the “storage without significant loss in activity” value in series [2] (-20° C., basic saponification solutions) is given as “up to a week”. Moreover, the “stability in basic saponification solutions” value in series [2] (basic saponification solutions) is “relatively stable”. For the same molecule, the “stability in neutral or acidic solutions” value in series [2] (neutral or acidic solutions) was “rapid decomposition”. In addition, in the series with human neutrophils (2 ug/ml), the “aggregation of human neutrophils” value is given as “did not aggregate human neutrophils”.

Values taken from patent US4782081A, “Compounds and methods useful for the synthesis of thromboxane A2” (priority 1986, dated 1988).
